Source: ChEMBL document CHEMBL3525941, “Comparison of in vitro metabolism of ticlopidine by human cytochrome P450 2B6 and rabbit cytochrome P450 2B4” (Drug Metab Dispos, 2011)

Legend:
Cytochrome P450 2B6 [1] = target: T1, Cytochrome P450 2B6 (Homo sapiens, UniProt P20813); assay: Activity of human CYP2B6 assessed as enzyme-mediated compound formation treated with 10 uM ticlopidine for 60 mins by HPLC-MS analysis in presence of NADPH; format: ADME; settings: 1 h
T1 sequence (P20813 whole entry): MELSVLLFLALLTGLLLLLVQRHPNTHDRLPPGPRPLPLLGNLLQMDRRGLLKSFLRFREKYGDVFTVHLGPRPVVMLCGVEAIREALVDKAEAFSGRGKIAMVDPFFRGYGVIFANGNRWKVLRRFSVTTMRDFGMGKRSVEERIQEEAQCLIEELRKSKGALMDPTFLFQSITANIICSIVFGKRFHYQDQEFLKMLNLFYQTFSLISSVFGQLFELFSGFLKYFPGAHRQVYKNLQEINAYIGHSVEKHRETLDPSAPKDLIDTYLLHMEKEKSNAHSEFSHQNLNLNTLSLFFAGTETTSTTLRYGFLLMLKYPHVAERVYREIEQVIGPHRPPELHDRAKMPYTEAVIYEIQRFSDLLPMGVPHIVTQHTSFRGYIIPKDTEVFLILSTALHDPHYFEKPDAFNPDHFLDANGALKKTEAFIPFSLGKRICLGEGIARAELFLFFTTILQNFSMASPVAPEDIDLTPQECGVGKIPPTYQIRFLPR

Cytochrome P450 2B4 [2] = target: T2, Cytochrome P450 2B4 (Oryctolagus cuniculus, UniProt P00178); assay: Activity of rabbit CYP2B4 assessed as observed rate constant for enzyme-mediated compound formation treated with 1 uM ticlopidine by HPLC-MS analysis in presence of NADPH; format: ADME
T2 sequence (P00178 whole entry): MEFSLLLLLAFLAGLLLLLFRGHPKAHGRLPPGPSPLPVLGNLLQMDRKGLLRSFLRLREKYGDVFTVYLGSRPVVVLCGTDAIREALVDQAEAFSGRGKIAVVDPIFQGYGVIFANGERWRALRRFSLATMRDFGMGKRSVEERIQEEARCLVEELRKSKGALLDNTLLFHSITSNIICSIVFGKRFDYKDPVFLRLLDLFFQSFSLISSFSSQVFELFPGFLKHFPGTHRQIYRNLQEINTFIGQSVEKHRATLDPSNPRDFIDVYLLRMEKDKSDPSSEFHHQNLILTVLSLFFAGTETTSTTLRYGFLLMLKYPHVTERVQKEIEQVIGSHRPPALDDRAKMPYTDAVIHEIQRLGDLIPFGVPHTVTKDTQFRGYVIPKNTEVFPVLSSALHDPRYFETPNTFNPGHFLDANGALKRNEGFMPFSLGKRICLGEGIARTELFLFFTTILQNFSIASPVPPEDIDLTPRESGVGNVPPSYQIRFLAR

Cytochrome P450 2B6 [3] = target: T1, Cytochrome P450 2B6; assay: Activity of human CYP2B6 assessed as observed rate constant for enzyme-mediated compound formation treated with 1 uM ticlopidine by HPLC-MS analysis in presence of NADPH; format: ADME
Cytochrome P450 2B4 [4] = target: T2, Cytochrome P450 2B4; assay: Activity of rabbit CYP2B4 assessed as enzyme-mediated compound formation treated with 10 uM ticlopidine for 60 mins by HPLC-MS analysis in presence of NADPH; format: ADME; settings: 1 h
Cytochrome P450 2B6 [5] = target: T1, Cytochrome P450 2B6; assay: Activity of recombinant full-length CYP2B6 (unknown origin) expressed in baculovirus-infected insect cells assessed as enzyme-mediated compound formation treated with 10 uM ticlopidine for 60 mins by HPLC-MS analysis in presence of NADPH; format: ADME; settings: 1 h
Liver microsome = assay: Drug level in human liver microsomes assessed as compound formation treated with 10 uM ticlopidine for 60 mins by HPLC-MS analysis in presence of NADPH; format: ADME; settings: 1 h
[6] = Retention time of the compound by HPLC-MS analysis; format: physicochemical
CYP2B4 = target: T3, CYP2B4 (Oryctolagus cuniculus, UniProt P00178); assay: Inhibition of rabbit CYP2B4 assessed as inactivation rate constant at 100 uM for 2 mins by HPLC-MS analysis in presence of NADPH; format: ADME
T3 sequence (P00178 whole entry): T2 sequence (P00178 whole entry)

CYP2B6 = target: T4, CYP2B6 (Homo sapiens, UniProt P20813); assay: Inhibition of human CYP2B6 assessed as inactivation rate constant at 100 uM for 2 mins by HPLC-MS analysis in presence of NADPH; format: ADME
T4 sequence (P20813 whole entry): T1 sequence (P20813 whole entry)

For `OC1CN(Cc2ccccc2Cl)Cc2ccsc21` (stereo not given), the Compound recovery (Cytochrome P450 2B6 [1]) was “metabolite_detected”, the kobs (Cytochrome P450 2B4 [2]) was 0.49 min⁻¹ and the kobs (Cytochrome P450 2B6 [3]) was 0.48 min⁻¹. For the same compound, the Compound recovery (Cytochrome P450 2B4 [4]) was “metabolite_detected”, the Compound recovery (Cytochrome P450 2B6 [5]) was “metabolite_detected” and the Compound recovery (Liver microsome) was “metabolite_detected”. It also gave a Retention_time [6] of 4.56 min.
With `O=C1C=C2CN(Cc3ccccc3Cl)CCC2S1` (stereo not given) the Compound recovery (Cytochrome P450 2B6 [1]) was “metabolite_detected”, the kobs (Cytochrome P450 2B4 [2]) was 0.48 min⁻¹ and the kobs (Cytochrome P450 2B6 [3]) was 0.5 min⁻¹. The Compound recovery (Cytochrome P450 2B4 [4]) was “metabolite_detected”, the Compound recovery (Cytochrome P450 2B6 [5]) was “metabolite_detected” and the Compound recovery (Liver microsome) was “metabolite_detected”. It also gave a Retention_time [6] of 4.9 min.
In the case of `Clc1ccccc1C[N+]1=Cc2ccsc2CC1`, the Compound recovery (Cytochrome P450 2B6 [1]) is reported as “metabolite_detected”, the Compound recovery (Cytochrome P450 2B4 [4]) is reported as “metabolite_detected” and the Compound recovery (Cytochrome P450 2B6 [5]) is reported as “metabolite_detected”. The Compound recovery (Liver microsome) was “metabolite_detected”.
With `Clc1ccccc1C[n+]1ccc2sccc2c1` the Compound recovery (Cytochrome P450 2B6 [1]) was “metabolite_detected”, the kobs (Cytochrome P450 2B4 [2]) was 0.56 min⁻¹ and the Compound recovery (Cytochrome P450 2B4 [4]) was “metabolite_detected”. The Compound recovery (Cytochrome P450 2B6 [5]) was “metabolite_detected” and the Compound recovery (Liver microsome) was “metabolite_detected”.
In the case of `[O-][N+]1(Cc2ccccc2Cl)CCc2sccc2C1` (stereo not given), the Compound recovery (Cytochrome P450 2B6 [1]) is reported as “metabolite_detected”, the kobs (Cytochrome P450 2B4 [2]) is reported as 0.66 min⁻¹ and the kobs (Cytochrome P450 2B6 [3]) is reported as 0.61 min⁻¹. The Compound recovery (Cytochrome P450 2B4 [4]) was “metabolite_detected”, the Compound recovery (Cytochrome P450 2B6 [5]) was “metabolite_detected” and the Compound recovery (Liver microsome) was “metabolite_detected”. For the same compound, the Retention_time [6] was 8 min.
Compound `CCOc1ccc2c(C(F)(F)F)cc(=O)oc2c1` has a kinact at 2 min, 100 µM (CYP2B4) of 0.000333 s⁻¹ and a kinact at 2 min, 100 µM (CYP2B6) of 0.00167 s⁻¹.
For `CC(NC(C)(C)C)C(=O)c1cccc(Cl)c1` (stereo not given) [BUPROPION], the kinact at 2 min, 100 µM (CYP2B4) was 0.00133 s⁻¹, the kinact at 2 min, 100 µM (CYP2B6) was 0.00533 s⁻¹ and the Retention_time [6] was 9.7 min.
